Reference: US20240366543A1, “METHODS OF TREATING METHYLMALONIC ACIDEMIA AND PROPIONIC ACIDEMIA” (HemoShear Therapeutics, Inc., priority 2021, published 2024)
≈ marks a conversion by molar mass, not a printed value. Where “and” joins values, the source holds several entries; their conditions need not be identical. Equal entries are not always repeated.

Legend:
Type in all cases: cell-based, human
[1] = tested on: primary hepatocytes (pHeps) from PA donors; assay: HemoShear REVEAL-Tx Technology, PA pHeps
Description: (§1) For this experiment, we deployed the HemoShear REVEAL-Tx™ technology, which is based on the cone-and-plate configuration or viscometer combined with a porous polycarbonate membrane that mimics a filtering layer of sinusoidal endothelial cells (see: Dash A, Deering TG, Marukian S, et al. Physiological Hemodynamics and Transport Restore Insulin and Glucagon Responses in a Normal Glucose Milieu in Hepatocytes In Vitro. 73rd Scientific Sessions of the American Diabetes Association, 2013 (Chicago), and U.S. Pat. Nos. 7,811,782 and 9,500,642, and 9,617,521, each of which is incorporated by reference herein in its entirety).
(§2) Hepatocytes from propionic academia patients are plated in a collagen gel sandwich on one side of the membrane replicating the polarized orientation found in vivo within the hepatic sinusoids. On the other side, medium is continuously perfused and surface shear rates are applied across a range of physiological values derived from sinusoidal flow rates in vivo while also controlling transport in the system with in- and out-flow tubing to each compartment. Effectively, this creates a flow-based culture system where hepatocytes are shielded from direct effects of flow, as they would be in vivo, but perfusion, nutrient gradients, and interstitial fluid movement are maintained.
Biomarker levels are normalized to cell counts and cell volume to account for differences in the number of cells plated for each donor. […] This is most likely due to the presence of ^12C-succinyl-CoA in the sample, which has the same mass. In experiments described below, M-CoA is labeled with ^13C to determine a more accurate percent reduction. Compound 5 reduced the C3 concentration and the C3/C2 ratio with an EC50 similar to that for the reduction in P-CoA (FIGS. 3C, 3D).

Normal pHeps = assay: HemoShear Technology, normal pHeps; conditions: exposed 6 days
Description: as §1, with “entirety). […]” for “entirety).”
In PA and MMA pHeps, where P-CoA and M-CoA levels are very high, there is a dramatic reduction in P-CoA and M-CoA pools with Compound 5 treatment (Table 2 and Table 3). […] The effect of Compound 5 on levels of acetyl-CoA were measured in PA and MMA pHeps in acute static experiments and in PA, MMA and normal pHeps following chronic exposures in the HemoShear Technology (FIG. 5B; FIG. 6B). […]
To further evaluate the hypothesis that Compound 5 drives a redistribution of the acyl-CoA pools resulting in a reduction in P-CoA and M-CoA, the levels of CoASH were measured in the PA and MMA disease models. […]

[2] = tested on: Hepatocytes from propionic academia patients; assay: Ureagenesis (15N-urea) in HemoShear REVEAL-Tx technology (Example 3); conditions: PA primary hepatocytes, treated day 5 to day 7, 15N-NH4Cl 4 hrs
Description: as §1
as §2, with “Effectively, this creates a flow-based culture system where hepatocytes are shielded from direct effects of flow, as they would be in vivo, but perfusion, nutrient gradients, and interstitial fluid movement are maintained.” left out
Hepatocytes are treated with increasing doses of Compound 5 (0, 0.1, 0.3, 1, 3, 10, 30, 100 μM) in the HemoShear REVEAL-Tx™ technology from day 5 to day 7. […] After 4 hrs, cells are washed 2× in saline solution and lysed, scraped and harvested using 80% methanol. ^15N-urea is measured by GCMSMS.

[3] = PA pHeps, HemoShear Technology, average ± SD
[4] = PA pHeps, HemoShear Technology, exposed 6 days

With `CCC(C)(C)C(=O)O` [Compound 5, 2,2-dimethylbutyric acid] the “EC50 value for CoASH relative to EC50 value for reduction in disease biomarkers” value ([1]; HemoShear Technology, PA and MMA pHeps, 6 days) was 10 fold, the EC90 ([1]; Homo sapiens, Hepatocyte, exposure threshold used for comparison with clinical PK, read-out: estimated in vitro EC90) was 2.32 µg/mL (≈ 20 µM) and the “average reduction in the C3/C2 ratio (log 2 fold change)” value ([1]; PA pHeps, HemoShear Technology, 30 μM) was −2.1±1.2 log 2 fold change. The “% change at 30 μM, 2-Methylcitric acid (2MC)” value [1, 3] was −78.6±12.9%, the “% change at 30 μM, 12C-Acetyl-Carnitine (C2)” value [1, 3] was 54 ± 80.6% and the “% change at 30 μM, 12C-Propionyl-Carnitine (C3)” value [1, 3] was −68.9±14.6% and −69.4 ± 16.2%. For the same molecule, the “% change at 30 μM, 12C-Propionyl-CoA (P-CoA)” value [1, 3] was −78.8±10.9%, the “Percent change at 30 μM, 12C-Acetyl-CoA” value [1, 4] was 54 ± 80.6% and the “Percent change at 30 μM, CoASH” value [1, 4] was −31.3 ± 24.2%. For the same molecule, the “Percent change at 30 μM, 12C-Acetyl-CoA” value (Normal pHeps) was 20 ± 2.9%, the “Percent change at 30 μM, CoASH” value (Normal pHeps) was −35.2 ± 3% and the “15N-urea (ureagenesis)” value [2] was “dose-dependent increase”.
